Several values for one entry are separate records, joined by “and”; a condition that tells them apart may be missing. Equal values may be shown once. Toxic doses and inconclusive results are not listed. The calls were made as follows: active = survival T/C of 150% or more; inactive = T/C below 125% in these data.
Tested on: BDF1 mice, B16 melanoma ip, median survival T/C
Experiment: NCI In Vivo Anticancer Drug Screen. Data for tumor model B16 Melanoma (intraperitoneal) in B6D2F1 (BDF1) mice
Conditions: endpoint: median survival time, higher = longer survival
How it was run: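 Values are ratios of treated (T) to vehicle-control (C) measurements of survival or tumor size in tumor-bearing mice.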

[1] = dose: 50.0 mg/kg/injection, schedule: Q01DX009 (ip), vehicle: saline with Tween-80
[2] = dose: 100.0 mg/kg/injection, schedule: Q01DX009 (ip), vehicle: saline with Tween-80
[3] = dose: 200.0 mg/kg/injection, schedule: Q01DX009 (ip), vehicle: saline with Tween-80
[4] = dose: 0.25 mg/kg/injection, schedule: Q01DX009 (ip), vehicle: saline
[5] = dose: 0.5 mg/kg/injection, schedule: Q01DX009 (ip), vehicle: saline
[6] = dose: 1.0 mg/kg/injection, schedule: Q01DX009 (ip), vehicle: saline
[7] = dose: 2.0 mg/kg/injection, schedule: Q01DX009 (ip), vehicle: saline
[8] = dose: 100.0 mg/kg/injection, schedule: Q01DX009 (ip), vehicle: Klucel (hydroxypropylcellulose) (HPC)
[9] = dose: 200.0 mg/kg/injection, schedule: Q01DX009 (ip), vehicle: Klucel (hydroxypropylcellulose) (HPC)
[10] = dose: 400.0 mg/kg/injection, schedule: Q01DX009 (ip), vehicle: Klucel (hydroxypropylcellulose) (HPC)
[11] = dose: 50.0 mg/kg/injection, schedule: Q01DX009 (ip), vehicle: Klucel (hydroxypropylcellulose) (HPC)
[12] = dose: 6.25 mg/kg/injection, schedule: Q01DX009 (ip), vehicle: saline
[13] = dose: 50.0 mg/kg/injection, schedule: Q01DX009 (ip), vehicle: saline
[14] = dose: 6.25 mg/kg/injection, schedule: Q01DX009 (ip), vehicle: Klucel (hydroxypropylcellulose) (HPC)
[15] = dose: 12.5 mg/kg/injection, schedule: Q01DX009 (ip), vehicle: Klucel (hydroxypropylcellulose) (HPC)
[16] = dose: 400.0 mg/kg/injection, schedule: Q01DX009 (ip), vehicle: saline with Tween-80
[17] = dose: 25.0 mg/kg/injection, schedule: Q01DX009 (ip), vehicle: Klucel (hydroxypropylcellulose) (HPC)
[18] = dose: 100.0 mg/kg/injection, schedule: Q01DX009 (ip), vehicle: saline
[19] = dose: 200.0 mg/kg/injection, schedule: Q01DX009 (ip), vehicle: saline

Measured: T/C

CNC(=S)N(C1CCCCC1)C1CCCCC1
inactive: [1] 101 % of control | [2] 95 % of control | [3] 98 % of control

Cc1c(N)nc(C(CC(N)=O)NCC(N)C(N)=O)nc1C(=O)NC(C(=O)NC(C)C(O)C(C)C(=O)NC(C(=O)NCCc1nc(-c2nc(C(=O)NCCCNC(C)c3ccccc3)cs2)cs1)C(C)O)C(OC1OC(CO)C(O)C(O)C1OC1OC(CO)C(O)C(OC(N)=O)C1O)c1cnc[nH]1 (stereo not given)
inactive: [4] 105 % of control | [5] 102 % of control | [6] 106 % of control | [7] 110 % of control | dose: 4.0 mg/kg/injection, schedule: Q01DX009 (ip), vehicle: saline 108 % of control | dose: 8.0 mg/kg/injection, schedule: Q01DX009 (ip), vehicle: saline 111 % of control

O/N=C1\CCCC\C1=N/O.O/N=C1\CCCC\C1=N/O.[Pd]
inactive: dose: 25.0 mg/kg/injection, schedule: Q04DX003 (ip), vehicle: other 101 % of control | dose: 50.0 mg/kg/injection, schedule: Q04DX003 (ip), vehicle: other 91 % of control | dose: 100.0 mg/kg/injection, schedule: Q04DX003 (ip), vehicle: other 93 % of control

CCOC(=O)c1ccc(NC(=O)Nc2ccc(Cl)cc2)cc1
inactive: [8] 106 % of control | [9] 106 % of control | [10] 100 % of control

COc1cccc2c1C(=O)c1c(O)c3c(c(O)c1C2=O)C[C@@](O)(/C(CO)=N/NC(=O)c1ccc(Cl)c(Cl)c1)C[C@@H]3OC1CC(NC(=S)Nc2ccc(F)cc2)C(O)C(C)O1 (stereo not given in full)
inactive: dose: 0.4 mg/kg/injection, schedule: Q01DX009 (ip), vehicle: water 101 % of control | dose: 0.8 mg/kg/injection, schedule: Q01DX009 (ip), vehicle: water 112 % of control | dose: 1.6 mg/kg/injection, schedule: Q01DX009 (ip), vehicle: water 111 % of control | dose: 3.2 mg/kg/injection, schedule: Q01DX009 (ip), vehicle: water 106 % of control

O=C(NC(CSCc1ccccc1)C(=O)Oc1ccc([N+](=O)[O-])cc1)OCc1ccccc1 (stereo not given)
inactive: dose: 25.0 mg/kg/injection, schedule: Q01DX009 (ip), vehicle: gum acacia 97 % of control

CCOC12c3cc(OC)ccc3N(S(=O)(=O)c3ccc(C)cc3)CC1C2(Br)Br (stereo not given)
inactive: [11] 103 % of control | [8] 93 % of control | [9] 89 % of control

CN(CO)c1nc(N(C)CO)nc(N(C)CO)n1
inactive: [12] 111 % of control | dose: 12.5 mg/kg/injection, schedule: Q01DX009 (ip), vehicle: saline 112 % of control and 118 % of control | dose: 25.0 mg/kg/injection, schedule: Q01DX009 (ip), vehicle: saline 110 % of control and 124 % of control | [13] 120 % of control

CCN(CC)CCCC(C)NC(C)CCCN(CC)CC (stereo not given)
inactive: [14] 101 % of control | dose: 6.25 mg/kg/injection, schedule: Q01DX009 (ip), vehicle: water 98 % of control | [15] 95 % of control | dose: 12.5 mg/kg/injection, schedule: Q01DX009 (ip), vehicle: water 100 % of control

C[N+](C)(C)CCOC(=O)c1ccccc1
inactive: [2] 91 % of control | [3] 93 % of control | [16] 91 % of control

CC[CH2][Sn]([Cl])([Cl])[CH2]CC
inactive: [5] 93 % of control and 100 % of control | [6] 89 % of control and 100 % of control | [7] 93 % of control

O=[N+]([O-])c1ccc(C(O)C=C(C(F)(F)F)C(F)(F)F)cc1 (stereo not given)
inactive: [15] 93 % of control | [17] 89 % of control

CC1(C)N=C(N)N=C(N)N1c1ccc(OCC(=O)Nc2ccc(S(=O)(=O)F)cc2)c(Cl)c1
inactive: dose: 50.0 mg/kg/injection, schedule: Q04DX003 (ip), vehicle: saline 107 % of control | dose: 100.0 mg/kg/injection, schedule: Q04DX003 (ip), vehicle: saline 124 % of control

COc1cc(C(=O)N=Nc2c(O)[nH]c3ccc(Br)cc23)cc(OC)c1OC
inactive: [17] 98 % of control | [11] 109 % of control | [8] 86 % of control

Nc1ccc(S(=O)(=O)Nc2cccc3ccccc23)cc1
inactive: [8] 100 % of control | [9] 100 % of control | [10] 96 % of control

O=[As](O)(O)c1ccc(Nc2nc(Cl)nc(Cl)n2)cc1
inactive: dose: 3.13 mg/kg/injection, schedule: Q01DX009 (ip), vehicle: Klucel (hydroxypropylcellulose) (HPC) 100 % of control | [14] 110 % of control

COc1cc2c(cc1OC)C1=CC(=O)N3CCCC34OS(=O)OC14CC2 (stereo not given)
inactive: [8] 110 % of control | [9] 103 % of control | [10] 101 % of control

Cc1c(Cl)cccc1NC(=O)Oc1cc(Cl)c(Cl)cc1Cl
inactive: [14] 96 % of control | [15] 98 % of control | [17] 89 % of control and 98 % of control

COc1cccc(C(=O)c2ccncc2C)c1OC
inactive: dose: 25.0 mg/kg/injection, schedule: Q01DX009 (ip), vehicle: water 98 % of control | dose: 50.0 mg/kg/injection, schedule: Q01DX009 (ip), vehicle: water 96 % of control | dose: 100.0 mg/kg/injection, schedule: Q01DX009 (ip), vehicle: water 96 % of control

O=C(Nc1ccccc1Cl)c1ccc([N+](=O)[O-])cc1
inactive: [2] 100 % of control | [3] 105 % of control | [16] 97 % of control

CCCC[P+](CCCC)(CCCC)C(C)C
inactive: dose: 12.5 mg/kg/injection, schedule: Q01DX009 (ip), vehicle: saline with Tween-80 106 % of control | dose: 25.0 mg/kg/injection, schedule: Q01DX009 (ip), vehicle: saline with Tween-80 104 % of control

COc1ccccc1C(=O)c1ccccc1Cc1cccc2ccccc12
inactive: [1] 98 % of control | [2] 97 % of control | [3] 92 % of control | [16] 93 % of control

NC(CCC(=O)NC(CS)C(=O)NCC(=O)O)C(=O)O (stereo not given)
inactive: [13] 124 % of control | [18] 98 % of control | [19] 98 % of control | dose: 400.0 mg/kg/injection, schedule: Q01DX009 (ip), vehicle: saline 100 % of control

COc1ccc(CSCC(NC(=O)OC(C)(C)C)C(=O)O)cc1 (stereo not given)
inactive: [8] 110 % of control | [9] 97 % of control | [10] 95 % of control

CC[CH2][Sn]([CH2]CC)([CH2]CC)[O][Sn]([CH2]CC)([CH2]CC)[CH2]CC
inactive: [4] 95 % of control | [5] 100 % of control | dose: 0.5 mg/kg/injection, schedule: Q04DX003 (ip), vehicle: saline 117 % of control | [6] 92 % of control | dose: 1.0 mg/kg/injection, schedule: Q04DX003 (ip), vehicle: saline 117 % of control

O=C1CC(CO)CN1CCc1ccccc1 (stereo not given)
inactive: dose: 100.0 mg/kg/injection, schedule: Q04DX003 (ip), vehicle: Klucel (hydroxypropylcellulose) (HPC) 110 % of control | dose: 200.0 mg/kg/injection, schedule: Q04DX003 (ip), vehicle: Klucel (hydroxypropylcellulose) (HPC) 107 % of control | dose: 400.0 mg/kg/injection, schedule: Q04DX003 (ip), vehicle: Klucel (hydroxypropylcellulose) (HPC) 102 % of control

CCCCN(C)N=Nc1ccc(CCCC(=O)OCC)cc1
inactive: dose: 1.56 mg/kg/injection, schedule: Q01DX009 (ip), vehicle: saline 97 % of control | dose: 3.13 mg/kg/injection, schedule: Q01DX009 (ip), vehicle: saline 100 % of control | [12] 100 % of control

N=C(N)Sc1cc(O)ccc1O
inactive: [13] 105 % of control | [18] 94 % of control | [19] 91 % of control

OCC1OC(n2cnc3c(=S)nc[nH]c32)C(O)C1O (stereo not given)
inactive: dose: 12.5 mg/kg/injection, schedule: Q01DX009 (ip), vehicle: saline sonified 102 % of control | dose: 25.0 mg/kg/injection, schedule: Q01DX009 (ip), vehicle: saline sonified 105 % of control | dose: 50.0 mg/kg/injection, schedule: Q01DX009 (ip), vehicle: saline sonified 105 % of control | [1] 104 % of control | dose: 100.0 mg/kg/injection, schedule: Q01DX009 (ip), vehicle: saline sonified 95 % of control and 100 % of control | [2] 104 % of control | dose: 200.0 mg/kg/injection, schedule: Q01DX009 (ip), vehicle: saline sonified 102 % of control | [3] 100 % of control

CC(CN=Cc1ccccc1O)N=Cc1ccccc1O (stereo not given)
inactive: [15] 91 % of control | [17] 88 % of control | [11] 87 % of control | [8] 89 % of control
